In patent publication US20260053812A1, “METHODS OF TREATING HYPERTENSION WITH A COMBINATION OF AN ALDOSTERONE SYNTHASE INHIBITOR AND A DIURETIC” (Mineralys Therapeutics, Inc., priority 2022, published 2026):

Assay: Adverse events (TEAEs, SAEs, AESI; Safety Analysis Set)
Excerpt: In analyses performed on the Safety Analysis Set, subjects will be analyzed according to their actual treatment received.

CC(=O)N[C@H]1CC[C@H](NC(=O)CN2CCN(c3nncc(-c4ccc(C)cc4)n3)CC2)CC1 [Compound A HBr]
3.3%: Subjects with any On-treatment TEAEs leading to withdrawal from study drug, % (Part 1, 25 mg BID (N = 30)) | TEAE leading to permanent discontinuation from study drug, Hyperkalaemia, % (Part 1, 25 mg BID (N = 30)) | TEAE leading to permanent discontinuation from study drug, Hypertension, % (Part 1, 25 mg BID (N = 30)) | TEAE leading to permanent discontinuation from study drug, Metabolism and nutrition disorders, % (Part 1, 25 mg BID (N = 30)) | TEAE leading to permanent discontinuation from study drug, Vascular disorders, % (Part 1, 25 mg BID (N = 30))
(3.6) %: On-treatment TEAE, Cardiac disorders, % (Part 1, 50 mg QD (N = 28)) | On-treatment TEAE, Gastrointestinal disorders, % (Part 1, 50 mg QD (N = 28)) | On-treatment TEAE, Gastrointestinal disorders, Mild, % (Part 1, 50 mg QD (N = 28)) | On-treatment TEAE, General disorders and administration site conditions, Mild, % (Part 1, 50 mg QD (N = 28)) | On-treatment TEAE, Headache, % (Part 1, 50 mg QD (N = 28)) | On-treatment TEAE, Headache, Mild, % (Part 1, 50 mg QD (N = 28)) | On-treatment TEAE, Investigations, % (Part 1, 50 mg QD (N = 28)) | On-treatment TEAE, Investigations, Mild, % (Part 1, 50 mg QD (N = 28)) | On-treatment TEAE, Nervous system disorders, Mild, % (Part 1, 50 mg QD (N = 28)) | On-treatment TEAE, Urinary tract infection, Mild, % (Part 1, 50 mg QD (N = 28))
(7.1) %: On-treatment TEAE, Dizziness, % (Part 1, 50 mg QD (N = 28)) | On-treatment TEAE, General disorders and administration site conditions, % (Part 1, 50 mg QD (N = 28)) | On-treatment TEAE, Hypertension, % (Part 1, 50 mg QD (N = 28)) | On-treatment TEAE, Hypertension, Moderate, % (Part 1, 50 mg QD (N = 28)) | On-treatment TEAE, Infections and infestations, % (Part 1, 50 mg QD (N = 28)) | On-treatment TEAE, Infections and infestations, Moderate, % (Part 1, 50 mg QD (N = 28)) | On-treatment TEAE, Nervous system disorders, % (Part 1, 50 mg QD (N = 28)) | On-treatment TEAE, Urinary tract infection, % (Part 1, 50 mg QD (N = 28)) | On-treatment TEAE, Vascular disorders, % (Part 1, 50 mg QD (N = 28)) | On-treatment TEAE, Vascular disorders, Moderate, % (Part 1, 50 mg QD (N = 28))
(10.0) %: On-treatment TEAE, Infections and infestations, % (Part 1, 25 mg BID (N = 30)) | On-treatment TEAE, Investigations, % (Part 1, 25 mg BID (N = 30)) | On-treatment TEAE, Nervous system disorders, % (Part 1, 25 mg BID (N = 30)) | On-treatment TEAE, Urinary tract infection, % (Part 1, 25 mg BID (N = 30)) | On-treatment TEAE, Blood creatinine increased, % (Part 1, 100 mg QD (N = 30)) | On-treatment TEAE, Blood creatinine increased, Mild, % (Part 1, 100 mg QD (N = 30))
(17.9) %: On-treatment TEAE, Metabolism and nutrition disorders, % (Part 1, 50 mg QD (N = 28)) | On-treatment TEAE, Metabolism and nutrition disorders, Mild, % (Part 1, 50 mg QD (N = 28))
(13.3) %: Subjects with any On-treatment TEAEs, Moderate, % (Part 1, 25 mg BID (N = 30)) | On-treatment TEAE, Glomerular filtration rate decreased, Mild, % (Part 1, 100 mg QD (N = 30))
(8.7) %: On-treatment TEAE, Vascular disorders, Mild, % (Part 1, 12.5 mg QD (N = 23)) | TEAE leading to permanent discontinuation from study drug, Hyperkalaemia, % (Part 1, 12.5 mg QD (N = 23)) | TEAE leading to permanent discontinuation from study drug, Metabolism and nutrition disorders, % (Part 1, 12.5 mg QD (N = 23))
(52.2) %: Subjects with any On-treatment TEAEs, Mild, % (Part 1, 12.5 mg QD (N = 23))
(4.3) %: On-treatment TEAE, Vascular disorders, Moderate, % (Part 1, 12.5 mg QD (N = 23)) | Subjects with any On-treatment TEAEs, Severe, % (Part 1, 12.5 mg QD (N = 23)) | TEAE leading to permanent discontinuation from study drug, Cardiac disorders, % (Part 1, 12.5 mg QD (N = 23)) | TEAE leading to permanent discontinuation from study drug, Coronary artery disease, % (Part 1, 12.5 mg QD (N = 23)) | TEAE leading to permanent discontinuation from study drug, Dizziness, % (Part 1, 12.5 mg QD (N = 23)) | TEAE leading to permanent discontinuation from study drug, Nervous system disorders, % (Part 1, 12.5 mg QD (N = 23))
(13.0) %: Subjects with any On-treatment TEAEs, Moderate, % (Part 1, 12.5 mg QD (N = 23))
(21.4) %: Subjects with any On-treatment TEAEs, Moderate, % (Part 1, 50 mg QD (N = 28))
(33.3) %: On-treatment TEAE, Metabolism and nutrition disorders, % (Part 1, 25 mg BID (N = 30))
(10.7) %: On-treatment TEAE, Hyperkalaemia, % (Part 1, 50 mg QD (N = 28)) | On-treatment TEAE, Hyperkalaemia, Mild, % (Part 1, 50 mg QD (N = 28))
(14.3) %: Subjects with any On-treatment TEAEs, Mild, % (Part 1, 50 mg QD (N = 28))
(46.7) %: Subjects with any On-treatment TEAEs, Mild, % (Part 1, 25 mg BID (N = 30))
(30.0) %: On-treatment TEAE, Hyperkalaemia, % (Part 1, 25 mg BID (N = 30))
(16.7) %: On-treatment TEAE, Glomerular filtration rate decreased, % (Part 1, 100 mg QD (N = 30))
(26.7) %: On-treatment TEAE, Metabolism and nutrition disorders, Mild, % (Part 1, 25 mg BID (N = 30)) | On-treatment TEAE, Hyperkalaemia, % (Part 1, 100 mg QD (N = 30))
(6.7) %: On-treatment TEAE, Blood and lymphatic system disorders, % (Part 1, 25 mg BID (N = 30)) | On-treatment TEAE, Blood and lymphatic system disorders, Mild, % (Part 1, 25 mg BID (N = 30)) | On-treatment TEAE, Headache, % (Part 1, 25 mg BID (N = 30)) | On-treatment TEAE, Headache, Mild, % (Part 1, 25 mg BID (N = 30)) | On-treatment TEAE, Hyperkalaemia, Moderate, % (Part 1, 25 mg BID (N = 30)) | On-treatment TEAE, Infections and infestations, Mild, % (Part 1, 25 mg BID (N = 30)) | On-treatment TEAE, Investigations, Mild, % (Part 1, 25 mg BID (N = 30)) | On-treatment TEAE, Metabolism and nutrition disorders, Moderate, % (Part 1, 25 mg BID (N = 30)) | On-treatment TEAE, Nervous system disorders, Mild, % (Part 1, 25 mg BID (N = 30)) | On-treatment TEAE, Urinary tract infection, Mild, % (Part 1, 25 mg BID (N = 30)) | On-treatment TEAE, Gastrointestinal disorders, % (Part 1, 100 mg QD (N = 30)) | On-treatment TEAE, Gastrointestinal disorders, Mild, % (Part 1, 100 mg QD (N = 30))
(23.3) %: On-treatment TEAE, Hyperkalaemia, Mild, % (Part 1, 25 mg BID (N = 30))
(3.3) %: On-treatment TEAE, Cortisol decreased, % (Part 1, 25 mg BID (N = 30)) | On-treatment TEAE, Cortisol decreased, Mild, % (Part 1, 25 mg BID (N = 30)) | On-treatment TEAE, Gastrointestinal disorders, % (Part 1, 25 mg BID (N = 30)) | On-treatment TEAE, Gastrointestinal disorders, Mild, % (Part 1, 25 mg BID (N = 30)) | On-treatment TEAE, Hypertension, % (Part 1, 25 mg BID (N = 30)) | On-treatment TEAE, Infections and infestations, Moderate, % (Part 1, 25 mg BID (N = 30)) | On-treatment TEAE, Investigations, Moderate, % (Part 1, 25 mg BID (N = 30)) | On-treatment TEAE, Vascular disorders, % (Part 1, 25 mg BID (N = 30)) | On-treatment TEAE, Vascular disorders, Mild, % (Part 1, 25 mg BID (N = 30))
(17.4) %: Subjects with any On-treatment TEAEs leading to withdrawal from study drug, % (Part 1, 12.5 mg QD (N = 23))
